Assay results taken from patent publication US6011041A, “Use of anhydrovinblastine” (priority 1996, dated 2000).
Counter-ions that a name gives are not always drawn. Like-named read-outs stand apart in the source and are kept apart here.

Experiments:
[1] = tested on: H460 human non-small cell lung carcinoma; test: MTT dose response cytotoxicity, H460 (Table 1); assay type: cell-based; details: read-out: DRUG IC50
Experimental: (§1) Cytotoxicity experiments on AHVB were performed as direct comparisons with vincristine and navelbine in order to assess its inherent antineoplastic profile against a variety of tumour cell types relative to other relevant vinca alkaloids. The cytotoxicity of AHVB was investigated in vitro against a panel of tumour cell lines of varying lineage in order to determine the specificity of its antitumour activity with respect to cell type. The tumour lines studied were P388 lymphocytic leukemia (a murine lymphocytic leukemia), Noble (Nb) rat U17 lymphoma, MCF7 human breast carcinoma, H460 human non-small cell lung carcinoma, K562 human erythrokeukemia and LS180 human colon carcinoma based on established NCI in vitro new anticancer drug cytotoxicity screening protocols.
(§2) Standard dose response cytotoxicity assays (R. Mosmass, J. Immunol. Meth., 65:55-64, 1983) were utilized to determine the IC50 (drug concentration required to induce 50% inhibition of tumour cell growth) for vincristine, navelbine and AHVB. The indicated cell lines were obtained from either the ATCC or NCI tumor repository and were cultured in tissue culture media by standard techniques well known to those skilled in the art, prior to dilution to a defined cell concentration required for the studies in 96 well plates.
(§3) A wide range of drug concentrations were exposed to tumour cells growing at log phase in 96-well microtitre plates. Cell concentrations depended on the cell line as well as the length of time to be cultured. Typically, P388 cells were plated at a concentration of 30,000, 2,000 and 750 cells per well for studies lasting 1, 3 and 7 days, respectively MCF7 cells were plated at a concentration of 7,000 and 1,500 cells per well for studies lasting 3 and 7 days, respectively. H460 cells were plated at a concentration of 2,500 and 1,000 cells per well for studies lasting 3 and 7 days, respectively. K562 cells were plated at a concentration of 1,500 and 10,000 cells per well for studies lasting 1 and 3 days, respectively. LS180 cells were plated at a concentration of 5,000 and […] cells per well for studies lasting 3 and 7 days, respectively. After plating all cell lines were incubated (CO2 incubator at 37° C., 5% CO2) for 24 hours prior to addition of the cytotoxic agent (See Table 1). Subsequently the plates were incubated for the indicated time period. At specified times, cells were washed and subsequently exposed to the dye inclusion marker MTT (3-(4,5-dimethylthiazol-2-yl)-2,5diphenyl tetrazolium), which accumulated into viable cells. MTT was added to the cells at a final concentration of 50 μg per well. After a 4 hour incubation, the cells were washed free of media and unreacted MTT, prior to addition of DMSO which was required to solubilize the insoluble formazan precipitate that formed in viable cells. After the sample was mixed through repeated pipetting, the colored product was measured using a plate reader operating at 570 nm. The absorbance values obtained for cells cultured in the absence of drug was assumed to represent 100% viability. Experiments were repeated to substantiate any differences noted between […] and other vinca alkaloids.

[2] = tested on: LS180 human colon carcinoma; test: MTT dose response cytotoxicity, LS180 (Table 1); assay type: cell-based; details: read-out: DRUG IC50
Experimental: as §1, §2, §3

[3] = tested on: healthy male Nb rats; test: acute (14 day) single dose toxicity in healthy male Nb rats (Table 2); assay type: in vivo, rat; details: single i.p. injection
Experimental: (§4) Range-finding acute (14 day), single dose toxicity studies were performed in healthy male Nb rats in order to determine the maximum tolerated dose of vincristine sulfate, navelbine and AHVB when administered as a single, intraperitoneal injection in these rodents (see Table 2). To this end, healthy non-tumor bearing male Nb rats (weight range 333-399 grams) were divided in groups of 3 animals. Each group was used to test one drug at one dosage. The volumes within which the drugs were administered depended on the concentration of the drug solution (in saline) and the weight of the animals, and ranged from 0.1-1.0 ml. Saline was used as a control. The highest dose of each drug which allowed survival of all animals in a group (3 out of 3) was taken as the subacutely toxic dosage for the drug, i.e. 0.7 mg/kg for vincristine, 2.0 mg/kg for navelbine and 3.0 mg/kg for AHVB.
(§5) The health of the animals was assessed by daily weight measurements in addition to behavioral indications of stress. Animals continued to be monitored throughout the complete 14 day study period. Animals were euthanized in the event of signs of severe stress or weight loss in excess of 20%. All animals were necropsied at the end of the study period or at the time of premature euthanasia.

[4] = as above; assay type: in vivo, rat; details: rat, in vivo, ip; male Nb rats, single i.p. injection; read-out: subacutely toxic dosage (highest dose which allowed survival of all animals in a group, 3 out of 3)
Experimental: as §4, §5

[5] = tested on: P388 murine leukemia cells; test: MTT dose response cytotoxicity, P388 (Table 1, FIG. 5); assay type: cell-based; details: Mus musculus, read-out: DRUG IC50
Experimental: as §1, §2, §3
A cytotoxicity curve was generated to estimate the IC50 of vincristine, navelbine and AHVB in the murine P388 cell line (see FIG. 5). In this study, P388 cells derived from an ascitic tumor grown in BDF1 were first separated from red cells employing Ficoll-Paque. Isolated while cells were washed twice then placed in serum containing tissue culture media (1×10^5 cells per ml of RPMI 1640 supplemented with L-glutamine, penicillin, streptomycin and 10% fetal bovine serum) and cultured for 2 hours. All non adherent cells were collected and that cell population was defined as P388 cells and used for cytotoxicity assays 24 hours later. Cytotoxicity assays were performed as described in the notes to Table 1. The drug concentrations used are indicated on the X-axis. […]

[6] = tested on: K562 human erythroleukemia; test: MTT dose response cytotoxicity, K562 (Table 1); assay type: cell-based; details: read-out: DRUG IC50
Experimental: as §1, §2, §3

[7] = tested on: MCF7 human breast carcinoma; test: MTT dose response cytotoxicity, MCF7 (Table 1); assay type: cell-based; details: read-out: DRUG IC50
Experimental: as §1, §2, §3

[8] = NCI-H460, 72 h, H460, exposure time 3 days
[9] = NCI-H460, 168 h, H460, exposure time 7 days
[10] = 72 h, LS180, exposure time 3 days
[11] = 168 h, LS180, exposure time 7 days
[12] = 24 h, P388, exposure time 1 day
[13] = 72 h, P388, exposure time 3 days
[14] = 168 h, P388, exposure time 7 days
[15] = 24 h, K562, exposure time 1 day
[16] = 72 h, K562, exposure time 3 days
[17] = 72 h, MCF7, exposure time 3 days
[18] = 168 h, MCF7, exposure time 7 days

| SMILES | MTD at 336 h [4] | IC50 [1, 8] | IC50 [1, 9] | IC50 [2, 10] | IC50 [2, 11] | IC50 [5, 12] | IC50 [5, 13] | IC50 [5, 14] | IC50 [6, 15] | IC50 [6, 16] | IC50 [7, 17] | IC50 [7, 18] | other results |
| --- | --- | --- | --- | --- | --- | --- | --- | --- | --- | --- | --- | --- | --- |
| CCC1=CC2CN(CCc3c([nH]c4ccccc34)C(C(=O)OC)(c3cc4c(cc3OC)N(C)C3C(O)(C(=O)OC)C(OC(C)=O)C5(CC)C=CCN6CCC43C65)C2)C1 (stereo not shown) [AHVB, 3',4'-anhydrovinblastine] | 3 mg/kg | – | – | – | – | – | – | – | – | – | – | – | IC50 ([1]; NCI-H460, 72 h): 10 nM; IC50 ([1]; NCI-H460, 168 h): 5 nM; IC50 ([2]; LS180, 72 h): > 50 nM; IC50 ([2]; LS180, 168 h): 17.5 nM; Mortality (surviving rats/injected rats) ([3]; 3.0 mg/kg): 3/3; Mortality (surviving rats/injected rats) ([3]; 4.4 mg/kg): 0/1; Mortality (surviving rats/injected rats) ([3]; 10.0 mg/kg): 0/3; IC50 ([5]; P388, 24 h): 140 ± 53 nM; IC50 ([5]; P388, 72 h): 15 ± 8.7 nM; IC50 ([5]; P388, 168 h): 20 nM; IC50 ([6]; K562, 24 h): > 50 nM; IC50 ([6]; K562, 72 h): 18.8 ± 8.8 nM; IC50 ([7]; MCF7, 72 h): > 2500 nM; IC50 ([7]; MCF7, 168 h): 31.3 ± 12.4 nM |
| CCC1=C[C@@H]2CN(C1)Cc1c([nH]c3ccccc13)[C@@](C(=O)OC)(c1cc3c(cc1OC)N(C)[C@H]1[C@@](O)(C(=O)OC)[C@H](OC(C)=O)[C@]4(CC)C=CCN5CC[C@]31[C@@H]54)C2 [navelbine, 3',4'-didehydro-4'-deoxy-C'-norvincaleukoblastine-di-L-tartrate] | 2 mg/kg | 0.3 nM | > 0.5 nM | > 50 nM | 0.5 nM | 20 ± 10 nM | 0.7 ± 0.3 nM | 2.5 nM | > 50 nM | 2.5 ± 2.2 nM | > 2500 nM | 2.6 ± 1.6 nM | Mortality (surviving rats/injected rats) ([3]; 2.0 mg/kg): 3/3; Mortality (surviving rats/injected rats) ([3]; 5.0 mg/kg): 0/3 |
| CC[C@]1(O)C[C@H]2CN(CCc3c([nH]c4ccccc34)[C@@](C(=O)OC)(c3cc4c(cc3OC)N(C=O)[C@H]3[C@@](O)(C(=O)OC)[C@H](OC(C)=O)[C@]5(CC)C=CCN6CC[C@]43[C@@H]65)C2)C1 [vincristine, Sulfate of 22-oxovincaleukoblastine] | 0.7 mg/kg | 3.5 nM | 2.5 nM | > 50 nM | 1.5 nM | 11 ± 3.6 nM | 1 ± 0.3 nM | 2 nM | > 50 nM | 1.5 ± 0.4 nM | > 2500 nM | 2.6 ± 1.6 nM | Mortality (surviving rats/injected rats) ([3]; 0.5 mg/kg): 3/3; Mortality (surviving rats/injected rats) ([3]; 0.7 mg/kg): 3/3 |
